{
  "source": "patent US20150111852A1",
  "about": "“1-Di(sec-butyl)-phosphinoyl-pentane (dapa-2-5) as a topical agent” (priority 2013, published 2015)",
  "key": {"mouth and throat": {"test_system": "mouth and throat", "assay": "Sensory activity of ODT-C on volunteers (double-blind, modified ASHRAE scale)", "format": "in vivo, human", "conditions": "for ODT-C test results (sensation and taste in words) / duration of cooling effect: 1.2 to 1.5 mg per ODT; for ODT-C test results (sensation and taste in words): 4 volunteers; for quality of heat abstraction sensation (peak intensity) / duration of cooling effect: ODT-C; for ASHRAE equivalent: peak heat abstraction sensation, modified ASHRAE scale neutral [0] to icy cold [-4]", "procedure": "ODT-C. More experiments were conducted to find a smaller tablet, in the range of 40 to 60 mg, with a disintegration of <10 sec. These paraemters might achieve a better pharmacological effect. ODT-B was 100 mg in size and disintegrated in <20 sec. […] For example, to 1.5 g of DAPA-2-5 is added 1.5 g of absolute ethanol, followed by 2.0 g of Neusilin US2. The mixture is shaken or mixed in a Speedmixer at 500 rpm for 1 min. The sample is placed under a heat source and about 2 hr later, the sample size is re-weighed with the expectation that the ethanol has been evaporated and the sample now weights 3.5 g. This powder is free-flowing. • b. a sample of maltitol powder is prepared (Maltisorb® P200 from Roquette). • c. a sample of Prosolv® EasyTab is prepared (JRS Pharma, Rosenburg, Germany). • d. a blend of a. [2.80 g], b. [15.73 g] and c. [31.46 g] is prepared to make 1000 ODT tablets, each weighing 50 mg and containing 1.2 mg of DAPA-2-5. • e. the blend is first shaken by hand, then placed for 2 min in a SpeedMixer at 500 rpm. The blend is poured into the funnel of a New Single Punch Tablet Press Pill Making Machine Maker TDP-1-5 [available from Amazon.com] and the extruded tablets are collected.\nODT-C, described in Study 2, were tested for sensory properties on 4 volunteers, with at least 3 trials per compound and at 1.2 to 1.5 mg per ODT. The ODT was placed on the mid-line posterior dorsal surface of the tongue and sensory effects recorded for 30 min on a standardized form […]. The ODT were coded and administered on a double-blind basis. A modified ASHRAE scale of neutral, slightly cool [-1], cool [-2], cold [-3], and icy cold [-4] was used to rank the peak heat abstraction sensations in the mouth and throat. Other perceived effects, e.g. taste and duration, were also noted."}, "oropharynx": {"test_system": "oropharynx", "assay": "Sensory effects and cold discomfort of compounds given orally in ODT (general evaluation)", "format": "in vivo, human", "conditions": "for distribution of the sensation (throat vs chest): oral ODT", "procedure": "The correlation between a chemical's potency at the TRPM8 receptor (measured by the EC50 μM) and potency to evoke sensory events in the oropharynx is complex.\nWhen a test compound is applied to non-keratinizng bodily surfaces (e.g., oropharyngeal surface), it is possible to characterize the resulting sensations.\nThe sensations are akin to rapid drinking of cold water mixed and equilibrated with ice chips. The intense cold is further accentuated if the drink is acidified, for example, with lemonade. The sensations of dull and intense cold on the surface of the oropharynx can be described as painful, uncomfortable, and aversive. The term “icy cold” is used to describe these adverse intense cold sensations.\nTogether, these three types of sensations—“icy cold”, coldness in the chest, and systemic coldness—is termed “cold discomfort”. […] The ideal agent must have a circumscribed site of action, and the intensity of the sensation should not cause “icy cold”, coldness in the chest, or systemic chills."}, "[1]": {"target": "T1, TRPA1 channels (human TRPA1 gene expressed in CHO cells) (Homo sapiens, UniProt O75762)", "T1 construct": "expressed in transfected cells; host or cells: CHO cells", "T1 sequence (O75762 whole entry)": "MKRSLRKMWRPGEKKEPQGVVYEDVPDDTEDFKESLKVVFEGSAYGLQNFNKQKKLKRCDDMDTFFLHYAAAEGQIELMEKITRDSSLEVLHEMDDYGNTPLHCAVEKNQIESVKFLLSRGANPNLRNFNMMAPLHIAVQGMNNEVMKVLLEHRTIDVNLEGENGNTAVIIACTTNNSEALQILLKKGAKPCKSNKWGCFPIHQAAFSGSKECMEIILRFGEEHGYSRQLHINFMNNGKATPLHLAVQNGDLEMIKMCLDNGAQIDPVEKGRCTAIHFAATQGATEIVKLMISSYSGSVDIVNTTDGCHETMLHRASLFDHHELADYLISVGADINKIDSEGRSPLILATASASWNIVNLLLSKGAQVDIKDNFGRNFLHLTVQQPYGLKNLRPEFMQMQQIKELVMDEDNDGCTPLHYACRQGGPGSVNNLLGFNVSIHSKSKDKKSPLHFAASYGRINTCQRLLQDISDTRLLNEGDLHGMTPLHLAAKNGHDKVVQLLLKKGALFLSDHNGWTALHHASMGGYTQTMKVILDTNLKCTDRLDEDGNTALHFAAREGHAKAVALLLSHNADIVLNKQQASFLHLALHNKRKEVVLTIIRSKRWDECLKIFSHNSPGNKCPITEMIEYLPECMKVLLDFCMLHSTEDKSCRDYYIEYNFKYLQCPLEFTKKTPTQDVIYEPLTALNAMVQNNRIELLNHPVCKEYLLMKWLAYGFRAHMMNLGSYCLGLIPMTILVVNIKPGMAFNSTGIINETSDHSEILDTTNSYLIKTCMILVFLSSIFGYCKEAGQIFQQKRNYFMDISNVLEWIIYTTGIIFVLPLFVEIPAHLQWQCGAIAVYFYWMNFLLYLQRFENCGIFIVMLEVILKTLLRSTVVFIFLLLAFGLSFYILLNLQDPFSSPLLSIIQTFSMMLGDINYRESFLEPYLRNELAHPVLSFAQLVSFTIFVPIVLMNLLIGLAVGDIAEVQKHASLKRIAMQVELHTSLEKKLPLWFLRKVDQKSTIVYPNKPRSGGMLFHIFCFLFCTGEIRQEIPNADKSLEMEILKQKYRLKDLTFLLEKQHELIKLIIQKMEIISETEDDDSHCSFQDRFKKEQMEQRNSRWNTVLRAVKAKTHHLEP", "assay": "TRPA1 agonist assay", "format": "cell-based", "conditions": "maximum tested concentrations of 100 μM", "procedure": "To examine the specificity of the test compounds, further studies were conducted on TRPV1 channels (human TRPV1 gene expressed in HEK293 cells) and TRPA1 channels (human TRPA1 gene expressed in CHO cells). The test cells were Chinese Hamster Ovary (CHO) cells or Human Embyronic Kidney (HEK) 293 cells transfected with human TRPV1 or TRPA1 cDNAs."}, "rat skin": {"test_system": "rat skin", "assay": "Irritant activity on shaved abdominal rat skin", "format": "in vivo", "parameters": "key to Redness after 20 μL applied topically to skin (scale of 0 to +++): the presence of redness (irritation) was graded on a scale of 0 to +++; the presence of redness (irritation) was graded on a scale of 0 to +++; the presence of redness (irritation) was graded on a scale of 0 to +++; the presence of redness (irritation) was graded on a scale of 0 to +++", "conditions": "for Redness after 20 μL applied topically to skin (scale of 0 to +++): pure compound, 1 hour; for skin irritancy in words: undiluted form", "procedure": "This hypothesis was tested by applying 20 μL of the pure compound onto the shaved abdominal skin of a pentobarbital-anesthetized rat. The test substance was enclosed in a circle of ˜1 cm diameter with a ring of cream. The test substance was applied with a micropipette, and after 1 hour the area was wiped with a cotton pad and the presence of redness (irritation) was graded on a scale of 0 to +++."}},
  "note": "Several values for one entry are separate records, joined by “and”; a condition that tells them apart may be missing. Equal values may be shown once. Entries after “also recorded” stand apart in the source; their conditions may differ.",
  "data": [
    {"compound": "CCCCCCCP(=O)(C(C)C)C(C)C", "note": "[DAPA-1-7, 1-Di(isopropyl)-phosphinoyl-heptane]", "values": [
      {"measurement": "ODT-C test results (sensation and taste in words)", "setting": "mouth and throat", "value": "intense sensation of icy cold, but has unpleasant"},
      {"measurement": "quality of heat abstraction sensation (peak intensity)", "setting": "mouth and throat", "value": "cold and icy cold which was painful to the back of the throat"},
      {"measurement": "duration of cooling effect", "setting": "mouth and throat", "value": "taste on the tongue: test dose of 1 to 2 mg, >15 min."},
      {"measurement": "ASHRAE equivalent", "setting": "mouth and throat", "value": "−3.5"},
      {"measurement": "distribution of the sensation (throat vs chest)", "setting": "oropharynx", "value": "spreads behind the sternum, into the chest"}
    ]},
    {"compound": "CCCCCCCP(=O)(C(C)CC)C(C)CC", "note": "(stereo not drawn) [DAPA-2-7, 1-Di(sec-butyl) phosphinoyl-heptane]", "values": [
      {"measurement": "ODT-C test results (sensation and taste in words)", "setting": "mouth and throat", "value": "intense sensation of icy cold, but has unpleasant"},
      {"measurement": "quality of heat abstraction sensation (peak intensity)", "setting": "mouth and throat", "value": "cold and icy cold which was painful to the back of the throat"},
      {"measurement": "duration of cooling effect", "setting": "mouth and throat", "value": "taste on the tongue, long-lasting >15 min"},
      {"measurement": "ASHRAE equivalent", "setting": "mouth and throat", "value": "−3.5"},
      {"measurement": "systemic sensations of cold", "setting": "oropharynx; higher oral doses (e.g., 5 mg or more)", "value": "sensations of cold on other body surfaces"},
      {"measurement": "distribution of the sensation (throat vs chest)", "setting": "oropharynx", "value": "sensations of cold in the chest; also recorded: spreads behind the sternum, into the chest"},
      {"measurement": "agonist activity on TRPA1 channels", "setting": "[1]", "value": "did not exhibit any agonist activity"},
      {"measurement": "Redness after 20 μL applied topically to skin (scale of 0 to +++)", "setting": "rat skin", "value": "++"},
      {"measurement": "skin irritancy in words", "setting": "rat skin", "value": "is a skin irritant"}
    ]},
    {"compound": "CCCCCCCCP(=O)(C(C)CC)C(C)CC", "note": "(stereo not drawn) [DAPA-2-8, 1-Di(sec-butyl) phosphinoyl-octane]", "values": [
      {"measurement": "ODT-C test results (sensation and taste in words)", "setting": "mouth and throat", "value": "strong unpleasant taste"},
      {"measurement": "ASHRAE equivalent", "setting": "mouth and throat", "value": "−2.7"}
    ]},
    {"compound": "CCCCCP(=O)(C(C)CC)C(C)CC", "note": "(stereo not drawn) [DAPA-2-5, 1-Di(sec-butyl)-phosphinoyl-pentane]", "values": [
      {"measurement": "ODT-C test results (sensation and taste in words)", "setting": "mouth and throat", "value": "pleasant dynamic cool"},
      {"measurement": "quality of heat abstraction sensation (peak intensity)", "setting": "mouth and throat", "value": "refreshing coolness and cold"},
      {"measurement": "duration of cooling effect", "setting": "mouth and throat", "value": "12 to 15", "unit": "min"},
      {"measurement": "ASHRAE equivalent", "setting": "mouth and throat", "value": "−2.7"},
      {"measurement": "sensation at increased dose", "setting": "oropharynx; dose increased to 8 mg (per tablet)", "value": "burning penetrating quality to the sensation, but it was not aversive; also recorded: did not produce stinging, adverse tastes, or “icy cold” or cold discomfort"},
      {"measurement": "duration of “dynamic cool” in the oropharynx", "setting": "oropharynx; in vivo", "value": "5 to 15 min and 10 to 15 min"},
      {"measurement": "distribution of the sensation (throat vs chest)", "setting": "oropharynx", "value": "remained localized to the throat and upper esophagus"},
      {"measurement": "agonist activity on TRPA1 channels", "setting": "[1]", "value": "did not exhibit any agonist activity"},
      {"measurement": "Redness after 20 μL applied topically to skin (scale of 0 to +++)", "setting": "rat skin", "value": 0},
      {"measurement": "skin irritancy in words", "setting": "rat skin", "value": "minimal or no pro-inflammatory actions on the skin"}
    ]},
    {"compound": "CCCCCCP(=O)(C(C)C)C(C)C", "note": "[DAPA-1-6, 1-Di(isopropyl)-phosphinoyl-hexane]", "values": [
      {"measurement": "ODT-C test results (sensation and taste in words)", "setting": "mouth and throat", "value": "intense sensation of icy cold, but has unpleasant"},
      {"measurement": "quality of heat abstraction sensation (peak intensity)", "setting": "mouth and throat", "value": "cold and icy cold which was painful to the back of the throat"},
      {"measurement": "duration of cooling effect", "setting": "mouth and throat", "value": "lasting >10 min"},
      {"measurement": "ASHRAE equivalent", "setting": "mouth and throat", "value": "−3.5"},
      {"measurement": "distribution of the sensation (throat vs chest)", "setting": "oropharynx", "value": "sensations of cold in the chest; also recorded: spreads behind the sternum, into the chest"}
    ]},
    {"compound": "CCCCCCP(=O)(C(C)CC)C(C)CC", "note": "(stereo not drawn) [DAPA-2-6, 1-Di(sec-butyl) phosphinoyl-hexane]", "values": [
      {"measurement": "ODT-C test results (sensation and taste in words)", "setting": "mouth and throat", "value": "intense sensation of icy cold, but has unpleasant"},
      {"measurement": "quality of heat abstraction sensation (peak intensity)", "setting": "mouth and throat", "value": "cold and icy cold which was painful to the back of the throat"},
      {"measurement": "duration of cooling effect", "setting": "mouth and throat", "value": "taste on the tongue, long-lasting >15 min"},
      {"measurement": "ASHRAE equivalent", "setting": "mouth and throat", "value": "−3.2"},
      {"measurement": "distribution of the sensation (throat vs chest)", "setting": "oropharynx", "value": "sensations of cold in the chest; also recorded: spreads behind the sternum, into the chest"},
      {"measurement": "agonist activity on TRPA1 channels", "setting": "[1]", "value": "did not exhibit any agonist activity"},
      {"measurement": "Redness after 20 μL applied topically to skin (scale of 0 to +++)", "setting": "rat skin", "value": "+"},
      {"measurement": "skin irritancy in words", "setting": "rat skin", "value": "is a skin irritant"}
    ]}
  ]
}
